The values that follow come from ChEMBL document CHEMBL1201862, “PubChem BioAssay data set” (2004).

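Protocol summary: plate cells (96-well), add compound at 5 concentrations, incubate 48 h, interpolate endpoints linearly. GI50 marks 50% less growth.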 Activity calls are given as the source filed them. Rule as the data show it: active = GI50 up to about 1.1 µM and inactive = higher. Where only a bound is given, the exact number is not on record here.

What all share (assay): NCI-60 cell line screen, 48 h
Test [1] deals with 786-0.
In test [2] the test system is EKVX.
Test [3] concerns HOP-92.
The subject of test [4] is K562.
In test [5] the test system is MDA-MB-231.
For test [6], the system named is MOLT-4.
The test system of test [7] is NCI-H23.
The test system of test [8] is NCI-H460.
Test [9] deals with OVCAR-4.
Test [10] deals with OVCAR-5.
In test [11] the test system is PC-3.
The test system of test [12] is RXF 393.
The test system of test [13] is SF-295.
Test [14] relates to SK-MEL-2.
Test [15] has as its system SK-MEL-5.
Test [16] relates to SNB-19.
Test [17] concerns U-251.
Test [18] has as its system Malme-3M.
The test system of test [19] is T47D.
The test system of test [20] is SN12C.

As to `N/C(=N\c1ccccc1)c1ccccc1N`, the GI50 was > 100 µM (inactive) in [1]; > 100 µM (inactive) in test [2]; 2.51 µM (inactive) in [3]; > 100 µM (inactive) in [4]; > 100 µM (inactive) in [5]; > 100 µM (inactive) in [6]. Also, the GI50 in test [7], in test [8], in [9], in test [10], in test [11] and in test [12] was > 100 µM (inactive) throughout. Moreover, the GI50 in test [13], in test [14], in test [15], in [16] and in test [17] was > 100 µM (inactive) throughout.
Regarding `CCC(=O)C1(c2ccccc2)CCN(C)CC1`, the GI50 in test [1], in [2], in [3], in test [4], in test [6] and in test [18] was > 100 µM (inactive) each time. Besides, the GI50 in test [7], in test [8], in test [9], in test [10], in [11] and in test [12] was > 100 µM (inactive) in each case. Besides, the GI50 in test [13], in test [15], in test [16], in [19] and in test [17] was > 100 µM (inactive) in each case.
In the case of `CCOC(=O)/C1=C(\C)N(Cc2ccccc2)C(=O)c2ccccc2C(=O)c2c(OC(C)=O)ccc(OC(C)=O)c21`, the GI50 in test [1] was > 100 µM (inactive); in [2] it was 18.3 µM (inactive); in test [3], 12.7 µM (inactive); in test [4] it was 42.9 µM (inactive); in test [5] it was > 100 µM (inactive); in test [6] it was 59.7 µM (inactive). In addition, the GI50 in [18] was 69.8 µM (inactive); in test [8] it was 39.4 µM (inactive); in test [9] it was 24.9 µM (inactive); in test [10], 41.7 µM (inactive); in [12], 33.2 µM (inactive); in test [13], 29 µM (inactive). The GI50 was 97.5 µM (inactive) in test [14]; 33.3 µM (inactive) in [15]; > 100 µM (inactive) in [20]; > 100 µM (inactive) in test [16]; > 100 µM (inactive) in test [19]; > 100 µM (inactive) in test [17].
With `O=C1N=C2Sc3ccc4ccccc4c3N2C1=O`, the GI50 in test [1] is 19.8 µM (inactive); in test [2] it was 16.1 µM (inactive); in test [3], 15 µM (inactive); in test [4] it was 33 µM (inactive); in test [6], 44.4 µM (inactive); in [18] it was 19.1 µM (inactive). The GI50 was 22.5 µM (inactive) in test [7]; 25.1 µM (inactive) in test [8]; 17 µM (inactive) in test [9]; 50.7 µM (inactive) in test [10]; 20.2 µM (inactive) in [12]; 18.6 µM (inactive) in [13]. The GI50 in test [14] is 26.4 µM (inactive); in test [15], 22.4 µM (inactive); in test [20], 20.3 µM (inactive); in test [16], 20.4 µM (inactive); in test [17], 20.5 µM (inactive).
Turning to `COc1cc(O)c(C(C)=O)c(O)c1`, the GI50 in [1] was > 100 µM (inactive); in [2], 37.4 µM (inactive); in test [3], 25 µM (inactive); in test [4], 18.7 µM (inactive); in test [18] it was > 100 µM (inactive); in [7] it was 30.8 µM (inactive). The GI50 in test [8] was 88.1 µM (inactive); in [9], 76.2 µM (inactive); in [10], > 100 µM (inactive); in test [11], 60.7 µM (inactive); in test [12], > 100 µM (inactive); in test [13] it was 92.5 µM (inactive). Also, the GI50 in test [14] was 78.9 µM (inactive); in [15], 35.3 µM (inactive); in test [20] it was 59 µM (inactive); in [19] it was 25.6 µM (inactive); in [17], 63.8 µM (inactive).
As for `CN(C)CCCNC(=O)N/N=C/c1ccc([N+](=O)[O-])cc1`, the GI50 is > 100 µM (inactive) in [1]; > 100 µM (inactive) in [4]; > 100 µM (inactive) in test [5]; > 100 µM (inactive) in test [6]; 40.2 µM (inactive) in [18]; > 100 µM (inactive) in [7]. Further, the GI50 in [8] is > 100 µM (inactive); in test [10], > 100 µM (inactive); in test [11], > 100 µM (inactive); in [13], 78.2 µM (inactive); in test [14], > 100 µM (inactive); in test [15] it was > 100 µM (inactive). Moreover, the GI50 is > 100 µM (inactive) in [20], > 100 µM (inactive) in [16], 86.1 µM (inactive) in test [19] and > 100 µM (inactive) in test [17].
As to `COC(=O)c1cccc(C)c1C1CN=NC12Cc1cc(C)cc(C)c1C2=O` (configuration not stated), the GI50 in test [1] was 48.8 µM (inactive); in test [2], 26.3 µM (inactive); in [3], 47.8 µM (inactive); in test [4], 26.4 µM (inactive); in test [5] it was 30.1 µM (inactive); in test [6], 27 µM (inactive). The GI50 is 32.2 µM (inactive) in test [18]; 41.4 µM (inactive) in test [7]; 30.8 µM (inactive) in test [8]; 51.1 µM (inactive) in [9]; > 100 µM (inactive) in test [10]; 29.4 µM (inactive) in [12]. Also, the GI50 in [15] is 31.6 µM (inactive); in [20], 37.2 µM (inactive); in test [16], 48.9 µM (inactive); in [19] it was 23.2 µM (inactive); in [17], 54.7 µM (inactive).
Take `COc1c(OC(C)C)c(OC(C)C)c2oc(=O)n3c2c1C(c1ccccc1-n1c(C)ccc1C)C=C3` (configuration not stated): the GI50 in test [1] was 80.7 µM (inactive); in test [2], 17.6 µM (inactive); in test [3] it was 53.7 µM (inactive); in test [4] it was > 100 µM (inactive); in [5], 45 µM (inactive); in [6], 42.5 µM (inactive). For the same compound, the GI50 in test [18] was 13 µM (inactive); in test [7], 34.8 µM (inactive); in test [8], 41.9 µM (inactive); in [9] it was 75 µM (inactive); in [10], > 100 µM (inactive); in test [11] it was 14.2 µM (inactive). In addition, the GI50 in test [12] was 22 µM (inactive); in test [13], 74.3 µM (inactive); in test [14] it was 95.9 µM (inactive); in test [15] it was 98.4 µM (inactive); in test [20], 71.9 µM (inactive); in [16], > 100 µM (inactive). The GI50 in [17] is > 100 µM (inactive).
With `OC(C#Cc1ccccc1)(c1ccccc1)c1ccccc1`, the GI50 in [1] was > 100 µM (inactive); in [2], 23.8 µM (inactive); in test [4] it was 34.3 µM (inactive); in [5] it was 51.8 µM (inactive); in test [6], 47.6 µM (inactive); in test [18], 24.2 µM (inactive). Moreover, the GI50 is 53.5 µM (inactive) in test [7]; 20.9 µM (inactive) in test [8]; 41.8 µM (inactive) in test [9]; 30.5 µM (inactive) in test [10]; 31.9 µM (inactive) in [11]; 30.3 µM (inactive) in [13]. For the same compound, the GI50 in [14] is 23.8 µM (inactive); in test [15], 19 µM (inactive); in [20], 69.8 µM (inactive); in test [16], 70.6 µM (inactive); in [19], 18.9 µM (inactive); in test [17] it was 26.7 µM (inactive).
Turning to `CCOC(=O)/C(C[C@H]1OC(C)(C)O[C@@H]1[C@H]1COC(C)(C)O1)=N/O`, the GI50 in [1], in test [2], in test [3], in test [4], in [5] and in test [6] was > 100 µM (inactive) in each case. For the same compound, the GI50 in test [18], in test [7], in test [8], in [9], in test [10] and in test [11] was > 100 µM (inactive) throughout. In addition, the GI50 in [12], in [13], in test [14], in [15], in test [20] and in [16] was > 100 µM (inactive) in each case. For the same compound, the GI50 in test [17] is > 100 µM (inactive).
With `COc1cc2c(c(OC)c1OC)-c1ccc(SC)c(=O)cc1[C@@H](NCc1cccc([N+](=O)[O-])c1)CC2`, the GI50 in test [1], in test [2], in test [3], in [4], in [6] and in [18] was < 0.01 µM (active) throughout. The GI50 in test [7] is < 0.01 µM (active); in [8], < 0.01 µM (active); in [9] it was < 0.01 µM (active); in test [10], > 100 µM (inactive); in [12], < 0.01 µM (active); in [13] it was < 0.01 µM (active). Moreover, the GI50 in [14], in test [15], in [20], in [16] and in [17] was < 0.01 µM (active) in each case.
